For series [1] the following is noted: rat, in vivo.
For series [2] the following is noted: rat, in vivo. The source holds these as a separate data set.
For series [3] the following is noted: rat, in vivo. As to the method:
Using normal rats (each 4 rats) which were in the same week old in initiation of administration of elcatonin as in Examples 1 and 2, dose of elcatonin not varying serum calcium value was examed in the case of single subcutaneous administration (administered over 10 seconds). […] Further, the same test was conducted excepting that blood collection was carried out 30 minutes after the administration. Measurement of serum calcium value was conducted using calcium C-test wako (Wako).
The source holds these as a separate data set.

Series [4] in a line: Blood retention time after intermittent administration. It is filed as in vivo. As to the method: From Comparative Example 1 described later, it has been considered that an analgesic action by intermittent administration of calcitonin is affected by accumulation of an effect in each administration. The blood retention time by intermittent administration is about 2 hours. Therefore, also included in the range of the present invention is an administration method in which continuous administration of 2 hours or more and less than 8 hours is repeated and accumulated duration of continuous administration within 24 hours is 8 hours or more.

The conditions of series [5]: human, in vivo.
In series [6] the test system is chronic constriction injury model (CCI model). Description: CCI model, Randall Selitto method, intravenous continuous drip. In kind it is in vivo, rat. The following applies: neuropathic pain; after effect once manifested. The procedure:
Preparing of the CCI model and elcatonin administration initiation period were the same as in Example 1. A cannulation was performed on cervical vein, and on 2nd day after cannulation, elcatonin (0.75 U/kg/week) was administered by intravenous continuous drip at 1 mL/body/24 hours, and withdrawal pressure by Randall Slitto method was measured 4, 8, 12 and 24 hours after.

The conditions of series [7]: cited from earlier work.

Where two headings read alike, the source gives them in different places. Positions of bridges follow the written chain, without caps; N, C: chain ends. Non-standard residues stand in square brackets, D forms with d. Residues, ends and D or L forms follow the SMILES beside them. Asu = N[C@@H](CCCCCC(=O)O)C(=O)O

With `CC(C)C[C@H](NC(=O)[C@H](CCCCN)NC(=O)CNC(=O)[C@H](CC(C)C)NC(=O)[C@@H](NC(=O)[C@@H]1CCCCCC(=O)N[C@@H](CO)C(=O)N[C@@H](CC(N)=O)C(=O)N[C@@H](CC(C)C)C(=O)N[C@@H](CO)C(=O)N[C@@H]([C@@H](C)O)C(=O)N1)C(C)C)C(=O)N[C@@H](CO)C(=O)N[C@@H](CCC(N)=O)C(=O)N[C@@H](CCC(=O)O)C(=O)N[C@@H](CC(C)C)C(=O)N[C@@H](Cc1c[nH]cn1)C(=O)N[C@@H](CCCCN)C(=O)N[C@@H](CC(C)C)C(=O)N[C@@H](CCC(N)=O)C(=O)N[C@H](C(=O)N[C@@H](Cc1ccc(O)cc1)C(=O)N1CCC[C@H]1C(=O)N[C@@H](CCCNC(=N)N)C(=O)N[C@H](C(=O)N[C@@H](CC(=O)O)C(=O)N[C@H](C(=O)NCC(=O)N[C@@H](C)C(=O)NCC(=O)N[C@H](C(=O)N1CCC[C@H]1C(N)=O)[C@@H](C)O)C(C)C)[C@@H](C)O)[C@@H](C)O` [elcatonin, 1-butylic acid-7-(L-2-aminobutylic acid)-26-L-aspartic acid-27-L-valine-29-L-alaninecalcitonin] (SNLST[Asu]VLGKLSQELHKLQTYPRTDVGAGTP-NH2; lactam N-6), the serum calcium concentration result in series [1] is given as “did not affect serum calcium amount at all”. Also, in series [2], the body weight entry is “no change in body weight was found” and the body weight increase result is “suppression of body weight increase became remarkable”. In addition, in series [3], the “serum calcium at effective dose on neuropathic pain in intermittent administration” value is “lowered to normal value (8.5 to 10.5 mg/dl) or less”. Moreover, the “serum calcium value relative to normal value” in series [3] (sc) is reported as “below a normal value”.
As to calcitonin, the blood retention time result in series [4] is recorded as “about 2 hours”. In addition, the “calcitonin dose altering serum calcium values in humans” value in series [5] amounted to 0.093 mU/kg/second. Moreover, the “continuation of analgesic effect during the drug withdrawal period” value in series [6] was “continues for at least one week”. Moreover, the serum calcium result in series [7] (bone metastasis cancer patient, s.c. 400 U/man/day mixed into morphine continuous administration) was “a significant decrease in serum calcium is recognized”; in series [7] (renal osteopathy patient, drip intravenous 40 U/man/5 hours) it was “no significant decrease in serum calcium is recognized”.

These data come from patent EP1894572B1, “THERAPEUTIC AGENT AND/OR PROPHYLACTIC AGENT FOR NEUROGENIC PAIN” (Asahi Kasei Pharma Corporation, priority 2005, dated 2013).
